Results taken from article PMC11173485, “Connecting GSK-3β Inhibitory Activity with IKK-β or ROCK-1 Inhibition to Target Tau Aggregation and Neuroinflammation in Alzheimer’s Disease—Discovery, In Vitro and In Cellulo Activity of Thiazole-Based Inhibitors” (Molecules, 2024).
Values after ≈ are worked out from the molar mass of the structure shown. Where two headings read alike, the source gives them in different places.

What was measured:
[1] = system: okadaic acid treated HT-22 cells; test: Okadaic-acid-induced tau hyperphosphorylation cell model, cell viability; format: cell-based, mouse; conditions: okadaic acid 400 nM; for cell viability after okadaic acid (in words): 3 h, viability after 24 h; for activity in okadaic-acid-induced hyperphosphorylation assay (in words): 10, 1, and 0.1 µM
Procedure: We evaluated the neuroprotective properties of the selected compounds in an okadaic-acid-induced tau hyperphosphorylation cell model. Okadaic acid, acting as a phosphatase inhibitor, induces hyperphosphorylation and accumulation of neurofilaments in the cells, thereby mirroring the hyperphosphorylated, tau-induced neurodegeneration observed in AD brain [55, 56]. […] Compounds 50 and 58 were not active.
HT-22 cells were seeded into 96-well plates at a density of 2 × 10^4 cells per well. Okadaic acid (Merck) was added at a concentration of 400 nM and incubated for 3 h. After this time, 10, 1, and 0.1 µM of tested compounds were added and incubated in the aseptic conditions (37 °C, 5% CO2). Cell viability was determined using Presto Blue assay after 24 h. All data were normalized to the percentage survival of vehicle control. Data are represented as mean SD versus vehicle control.
Figure 4 (A) Results of the okadaic-acid-induced hyperphosphorylation assay. The HT-22 cells were pretreated for 3 h with okadaic acid (400 nM), and the tested compounds, at the increasing non-cytotoxic concentrations, were determined using a viability assay (or with the vehicle, 10 µM DMSO in the control sample). Cell viability was measured using the PrestoBlue^TM cell viability reagent. (B–D) Results of anti-inflammatory assays in LPS-treated (100 ng/mL) BV-2 cell line. The final compounds and references were tested at increasing non-cytotoxic concentrations and with DMSO as a control sample. NO release was measured using a fluorometric assay with 2,3-diaminonaphthalene (DAN). The IL-6 and TNF-α levels were measured using an LANCE Ultra TR-FRET Detection Kit (Perkin Elmer). Statistical analysis was performed using GraphPad Prism 9.0.0. All values are expressed as mean with SD. Differences among groups were evaluated using one-way ANOVA followed by post hoc analysis (Dunnett’s multiple comparison tests) and were considered statistically significant if p < 0.05 (* p < 0.05, ** p < 0.01, and **** p < 0.0001).

[2] = Thermodynamic solubility assay in DPBS; format: physicochemical; conditions: for solubility at 24 h: Dulbecco's phosphate-buffered saline (DPBS), 20 °C, aqueous buffer, thermodynamic from solid, thermodynamic, 24 h shaking at room temperature, read-out: Solubility (µg/mL) ± SD
Procedure: To address potential challenges related to poorly soluble compounds, such as variable and limited intestinal absorption, we conducted thermodynamic solubility studies.
Quantitative HPLC analyses were performed similarly to the chemical stability studies. A standard solution of the tested compound was prepared in methanol at a concentration of 2 mg/mL. The standard solution was diluted with methanol to obtain five solutions with different concentrations ranging from 0.06 to 0.1 mg/mL or 0.035 to 0.05 mg/mL (for II), and they were quantified via HPLC. The calibration curve was plotted using AUC against the concentration (mg/mL). Next, 2 mg of the tested compound was dissolved in 1 mL of Dulbecco’s phosphate-buffered saline (DPBS), and the mixture was constantly agitated at 20 °C for 24 h in a thermoshaker. After that time, the mixture was filtered through a cellulose acetate syringe filter (pore size 0.22 μm) and the solution was analyzed via HPLC. The solubility of the tested compounds was calculated using the calibration curves (mg/mL).

[3] = Chemical stability assay in phosphate buffer pH 7.4; format: physicochemical; conditions: phosphate buffer pH 7.4, 37 °C, 120 min
Procedure: Before conducting the metabolic stability studies, we assessed the chemical stability of 62 and II in phosphate buffer at pH 7.4.
Quantitative HPLC analyses were acquired using Waters Alliance e2695 separations module (Waters, Milford, CT, USA), containing 2998 photodiode array (PDA), a detector (Waters, Milford, CT, USA), and a SpeedROD RP-18e 50–4.6 mm column (Merck, KGaA, Darmstadt, Germany). The temperature of the column was preserved at 30 °C. The experiment was conducted under the following conditions: a flow rate of 5 mL/min, eluent A (water/0.1% HCOOH), eluent B (MeCN/0.1% HCOOH), and a gradient starting from 0% of B to 100% of B for 3 min. Each sample was injected at a volume of 10 μL in triplicate, and the spectra were analyzed at the maximum wavelength. Potassium phosphate buffer (100 mM, pH 7.4, + 2 mM MgCl2) was incubated with the test compounds (1 µM, 0.2% DMSO) at 37 °C for 120 min (N = 2).

[4] = Metabolic stability in mouse liver microsomes; format: in vitro ADME; conditions: % compound remaining after 15 min with mouse liver microsomes, NADPH
Procedure: Metabolic stability was assessed using pooled microsomes from the liver of male mice (CD-1) from Sigma-Aldrich (St. Louis, MO, USA). Incubations were carried out in 96-well plates. Potassium phosphate buffer (100 mM, pH 7.4, + 2 mM MgCl2) containing murine liver microsomes (0.5 mg protein/mL) was pre-incubated with test compounds or positive control (1 µM, 0.2% DMSO) at 37 °C for 15 min (N = 2). Reactions were initiated by adding NADPH (1 mM). The reactions were also incubated without NADPH to exclude non-NADPH metabolism. The reactions were terminated after 15 min via the addition of an acetonitrile quenching solution containing an internal standard (labetalol, 0.5 mM). The plates were centrifuged at 4000 rpm for 30 min at 4 °C, and an aliquot of supernatant was diluted with water before analysis via UPLC-MS/MS. The UPLC-MS/MS system consisted of a Waters Acquity Premier (Waters Corporation, Milford, MA, USA) coupled with a Waters Xevo TQ-S Cronos mass spectrometer (electrospray ionization mode ESI). […] Chromatograms were recorded using a Waters eλ PDA detector. Spectra were analyzed in the 200–700 nm range with 1.2 nm resolution and a sampling rate of 20 points/s. […]

GSK-3β = GSK-3β (Homo sapiens, UniProt P49841); test: Kinetic studies of GSK-3β inhibition (ADP-Glo, varying ATP); format: biochemical; design: purchased Promega
Procedure: Non-linear regression analysis of the Michaelis–Menten equation was conducted on ATP-velocity curves to calculate the Vmax and Km parameters. […] Lineweaver–Burk and Cornish–Bowden plots, included in the Supporting Information (Figure S1A,B), further illustrate this observation. […] (refer to Supporting Information, Figure S2). The negative Ki value was directly derived from the plot at the x-axis intersection.
Kinetic studies were performed using the GSK-3β Kinase Enzyme System (Promega; Madison, WI, USA) and ADP-Glo™ bioluminescent assay (Promega; Madison, WI, USA), following the manufacturer’s instructions. The general workflow is described in Section 6.9. Evaluation of In Vitro Inhibitory Potencies towards Kinases GSK-3β, IKK-β, and ROCK-1. […] The substrate concentration was kept constant. The luminescence was measured using the EnSpire multimode microplate reader (PerkinElmer, Waltham, MA, USA). Each data point was collected in triplicate. Vmax and Km values of the Michaelis–Menten kinetics were calculated using nonlinear regression from ATP–velocity curves. Lineweaver–Burk and Cornish–Bowden plots were obtained via linear regression in GraphPad Prism (GraphPad Prism 9; GraphPad Software, San Diego, CA, USA). The Ki value of inhibitor 62 was determined by replotting the Lineweaver–Burk plots data (Km versus [I]).
Kinetic studies of GSK-3β inhibition by compound 62
type of GSK-3β inhibition by compound 62; V = initial velocity rate, S = ATP concentration,
I = inhibitor concentration.
Figure S2. Determination of Ki value for ATP-competitive inhibitor 62. Data replot from
= Michaelis-Menten constant.
(also on this page, place not known: K i -15 -10 -5 5 10 15 -100 -50 50 100 Cmpd 62_Ki determination I [nM] Km -Ki) […]

Chain of GSK-3β (P49841 whole entry): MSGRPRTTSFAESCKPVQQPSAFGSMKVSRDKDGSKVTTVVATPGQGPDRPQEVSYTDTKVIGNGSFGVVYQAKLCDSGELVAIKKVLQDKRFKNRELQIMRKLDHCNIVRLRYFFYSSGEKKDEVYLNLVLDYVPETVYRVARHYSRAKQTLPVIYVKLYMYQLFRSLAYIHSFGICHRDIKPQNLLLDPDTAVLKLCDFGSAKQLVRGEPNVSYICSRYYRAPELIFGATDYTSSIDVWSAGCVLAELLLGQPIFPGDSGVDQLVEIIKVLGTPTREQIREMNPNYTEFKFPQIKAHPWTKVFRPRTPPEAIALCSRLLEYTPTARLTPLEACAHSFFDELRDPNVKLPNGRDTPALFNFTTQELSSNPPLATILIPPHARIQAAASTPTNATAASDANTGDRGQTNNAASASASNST

Compound | cell viability after okadaic acid (in words) ([1]; 10 µM compound) | solubility at 24 h [2] | chemical stability, % compound remaining relative to 0 min [3] | MLM Stability (%) ± SD [4] | activity in okadaic-acid-induced hyperphosphorylation assay (in words) [1] | also measured
O=C1NC2(CCOC2)Nc2cc(-c3ccnc(NC(=O)C4CC4)c3)sc21 (stereo not drawn) [Compound 62, N-(4-(4′-Oxo-3′,4,4′,5-tetrahydro-1′H,2H-spiro[furan-3,2′-thieno [3,2-d]pyrimidin]-6′-yl)pyridin-2-yl)cyclopropanecarboxamide] | increased cell viability | 31 ± 1 µg/mL (≈ 83.7 µM) | 100% | 100 ± 1% |  | increase in solubility compared to reference compound II [2]: sixfold; type of GSK-3β inhibition (GSK-3β; ATP 10-100 μM, inhibitor 0-100 nM, Km rises, Vmax preserved): ATP-competitive; Ki (GSK-3β; replot from Lineweaver-Burk plots, unit inferred, read-out: Determined Ki (Figure S2)): 2.22 nM; Ki (GSK-3β; replot of Lineweaver–Burk data, Km versus [I], read-out: Ki GSK-3β): 2 nM
NC(=O)Nc1cc(-c2cccc(NC(=O)C3CC3)c2)sc1C(N)=O [Compound 58, 5-(3-(Cyclopropanecarboxamido)phenyl)-3-ureidothiophene-2-carboxamide] |  |  |  |  | not active | 
NC(=O)Nc1cc(-c2ccnc(NC(=O)C3CC3)c2)sc1C(N)=O [Compound 49, 5-(2-(Cyclopropanecarboxamido)pyridin-4-yl)-3-ureidothiophene-2-carboxamide] | increased cell viability |  |  |  |  | cell viability after okadaic acid (in words) ([1]; 1 µM compound): increased cell viability
NC(=O)Nc1cc(-c2ccnc(NC(=O)C3CCC3)c2)sc1C(N)=O [Compound 50, 5-(2-(Cyclobutanecarboxamido)pyridin-4-yl)-3-ureidothiophene-2-carboxamide] |  |  |  |  | not active | 
COc1nc(-c2ccnc(NC(=O)C3CC3)c2)sc1C(N)=O [II, reference compound] |  | 5 ± 1 µg/mL (≈ 15.7 µM) | 100% | 100 ± 0% |  | 
